Active and inactive are the calls of the source. No cut-off for these calls is given here.

This note sets out measurements from ChEMBL document CHEMBL1212695, “An allosteric potentiator of M4 mAChR modulates hippocampal synaptic transmission” (Nat Chem Biol, 2008).

Test [1] in a line: Agonist activity at muscarinic receptor in M4 receptor knock out mouse hippocampal CA1 pyramidal neuron assessed as reduction of excitatory postsynaptic current amplitude at 5 uM by whole-cell electrophysiology in presence of carbachol relative to control. The conditions noted are these: Hippocampus. In kind it is functional.
Test [2] concerns the target T1, Muscarinic acetylcholine receptor M5 (Rattus norvegicus) (UniProt P08911).
T1 sequence (whole entry): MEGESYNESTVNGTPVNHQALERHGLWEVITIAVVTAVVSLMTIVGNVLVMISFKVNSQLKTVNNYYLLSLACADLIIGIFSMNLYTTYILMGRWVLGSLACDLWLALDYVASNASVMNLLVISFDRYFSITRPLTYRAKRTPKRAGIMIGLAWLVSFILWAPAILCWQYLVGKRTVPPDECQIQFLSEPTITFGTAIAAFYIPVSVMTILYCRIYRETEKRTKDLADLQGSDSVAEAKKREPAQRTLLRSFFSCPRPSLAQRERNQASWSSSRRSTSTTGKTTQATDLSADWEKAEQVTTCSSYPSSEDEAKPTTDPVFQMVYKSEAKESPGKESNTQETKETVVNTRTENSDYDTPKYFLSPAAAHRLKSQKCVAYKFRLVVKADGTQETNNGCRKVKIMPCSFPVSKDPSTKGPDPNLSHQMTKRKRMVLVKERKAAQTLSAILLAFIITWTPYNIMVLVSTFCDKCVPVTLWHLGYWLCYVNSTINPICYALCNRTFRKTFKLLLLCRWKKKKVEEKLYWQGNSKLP
The test is described as follows: Antagonist activity at rat recombinant muscarinic M5 receptor expressed in CHO cells assessed as calcium mobilization at 10 uM after 1 hr by fluorescence assay. In kind it is functional, cell-based. A general note: A change in cytosolic calcium serves as a functional read-out for many receptors and channels.

A short description of test [3]: Agonist activity at muscarinic receptor in M4 receptor knock out mouse hippocampal CA1 pyramidal neuron assessed as reduction of excitatory postsynaptic current amplitude at 2 uM by whole-cell electrophysiology relative to control. It counts as functional. The settings on record: Hippocampus.
Test [4] concerns the target T2, Muscarinic acetylcholine receptor M2 (Rattus norvegicus) (UniProt P10980).
T2 sequence (whole entry): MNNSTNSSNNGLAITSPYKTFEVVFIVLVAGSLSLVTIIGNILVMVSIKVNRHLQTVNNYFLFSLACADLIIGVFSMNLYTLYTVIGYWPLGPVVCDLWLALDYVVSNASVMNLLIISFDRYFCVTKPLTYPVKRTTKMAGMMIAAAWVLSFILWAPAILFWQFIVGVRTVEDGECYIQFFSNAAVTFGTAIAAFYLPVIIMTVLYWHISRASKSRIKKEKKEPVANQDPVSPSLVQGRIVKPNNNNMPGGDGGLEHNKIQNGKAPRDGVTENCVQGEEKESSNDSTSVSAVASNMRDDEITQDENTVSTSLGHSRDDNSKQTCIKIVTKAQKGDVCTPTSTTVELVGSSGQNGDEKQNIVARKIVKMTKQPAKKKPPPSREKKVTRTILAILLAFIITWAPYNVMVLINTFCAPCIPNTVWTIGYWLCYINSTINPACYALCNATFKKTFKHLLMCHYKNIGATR
The test is described as follows: Allosteric activation of rat recombinant muscarinic M2 receptor expressed in CHO cells assessed as potentiation of acetylcholine-induced calcium mobilization at 10 uM after 1 hr by fluorescence assay. It counts as functional, cell-based.

Test [5] deals with CHO. The test is described as follows: Agonist activity at P2Y1 receptor in CHO cells assessed as induction of calcium mobilization at 10 uM after 1 hr by fluorescence assay. In kind it is functional, cell-based. The settings on record: Cricetulus griseus.
Test [6] deals with T3, Muscarinic acetylcholine receptor M4 (Mus musculus) (UniProt P32211).
T3 sequence (whole entry): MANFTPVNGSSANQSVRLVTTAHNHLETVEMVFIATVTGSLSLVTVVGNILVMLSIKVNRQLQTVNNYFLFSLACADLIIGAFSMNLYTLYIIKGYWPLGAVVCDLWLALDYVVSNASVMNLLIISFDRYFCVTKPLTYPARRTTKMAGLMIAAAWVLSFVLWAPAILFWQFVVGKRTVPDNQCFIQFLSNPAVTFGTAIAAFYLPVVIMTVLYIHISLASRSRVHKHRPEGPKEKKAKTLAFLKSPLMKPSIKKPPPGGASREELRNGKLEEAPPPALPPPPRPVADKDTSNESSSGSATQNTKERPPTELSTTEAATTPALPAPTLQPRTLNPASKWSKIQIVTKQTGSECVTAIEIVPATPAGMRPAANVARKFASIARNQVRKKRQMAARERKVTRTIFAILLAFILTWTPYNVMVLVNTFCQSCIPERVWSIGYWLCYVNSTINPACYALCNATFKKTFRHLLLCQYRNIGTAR
The experiment in a line: Agonist activity at muscarinic M4 receptor in wild type mouse hippocampal CA1 pyramidal neuron assessed as excitatory postsynaptic current amplitude at 5 uM by whole-cell electrophysiology relative to control. It counts as functional, tissue-based. The conditions noted are these: Hippocampus.

Test [7] concerns the target T4, Muscarinic acetylcholine receptor M4 (Rattus norvegicus) (UniProt P08485).
T4 sequence (whole entry): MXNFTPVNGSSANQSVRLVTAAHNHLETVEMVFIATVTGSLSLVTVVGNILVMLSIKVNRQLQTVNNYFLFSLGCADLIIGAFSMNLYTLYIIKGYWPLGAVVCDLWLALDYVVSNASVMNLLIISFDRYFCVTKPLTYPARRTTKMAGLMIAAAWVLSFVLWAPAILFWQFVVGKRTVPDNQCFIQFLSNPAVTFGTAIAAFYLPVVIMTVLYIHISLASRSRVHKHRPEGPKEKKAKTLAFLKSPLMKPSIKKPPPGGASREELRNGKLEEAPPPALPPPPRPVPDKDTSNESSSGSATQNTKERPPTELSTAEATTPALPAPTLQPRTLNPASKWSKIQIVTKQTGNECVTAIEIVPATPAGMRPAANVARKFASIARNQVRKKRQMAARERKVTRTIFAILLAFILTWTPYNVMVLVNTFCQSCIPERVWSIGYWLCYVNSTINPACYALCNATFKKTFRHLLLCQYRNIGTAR
The test is described as follows: Agonist activity at muscarinic M4 receptor in Sprague-Dawley rat hippocampal CA1 pyramidal neuron assessed as increase in carbachol-induced reduction in excitatory postsynaptic current at 10 uM by whole-cell electrophysiology relative to control. Further details: scale not given: the % may be the effect or the level left. The conditions noted are these: Hippocampus. It counts as functional, tissue-based.

In test [8] the target is T4, Muscarinic acetylcholine receptor M4 (Rattus norvegicus). The test is described as follows: Agonist activity at muscarinic M4 receptor in Sprague-Dawley rat hippocampal CA1 pyramidal neuron assessed as reduction of inhibitory postsynaptic current at 5 uM by whole-cell electrophysiology in presence of carbachol relative to control. In kind it is functional, tissue-based. The conditions noted are these: Hippocampus.

Test [9] has as its target T3, Muscarinic acetylcholine receptor M4 (Mus musculus). The test is described as follows: Agonist activity at muscarinic M4 receptor in wild type mouse hippocampal CA1 pyramidal neuron assessed as reduction of inhibitory postsynaptic current amplitude at 2 uM by whole-cell electrophysiology relative to control. It counts as functional, tissue-based. The conditions noted are these: Hippocampus.

The test system of test [10] is CHO. The test is described as follows: Allosteric activation at P2Y1 receptor in CHO cells assessed as potentiation of acetylcholine-induced calcium mobilization at 10 uM after 1 hr by fluorescence assay. It counts as cell-based. The conditions noted are these: Cricetulus griseus.
Test [11] has as its target T3, Muscarinic acetylcholine receptor M4 (Mus musculus). The experiment in a line: Agonist activity at muscarinic M4 receptor in wild type mouse hippocampal CA1 pyramidal neuron assessed as reduction of excitatory postsynaptic current at 2 uM by whole-cell electrophysiology relative to control. It counts as functional, tissue-based. The conditions noted are these: Hippocampus.

Test [12] can be described thus: Agonist activity at muscarinic receptor in M4 receptor knock out mouse hippocampal CA1 pyramidal neuron assessed as reduction of excitatory postsynaptic current amplitude at 100 uM by whole-cell electrophysiology relative to control. In kind it is functional. The settings on record: Hippocampus.

As usually defined, the inhibition is the change of the read-out against control, counted positive when it falls. As for `Cc1cc(C)c2c(N)c(C(=O)NCc3ccc(Cl)cc3)sc2n1`, the inhibition at 5 µM in test [1] worked out at 77.5%. Further, the outcome (in [2]; in test [4]; in the test on CHO [5]; in the test on CHO [10]) was inactive. In addition, in test [3], the inhibition at 2 µM worked out at 70.8%. Also, the results for the Activity in [6] and in test [7] were 102% and 42.7%, respectively. Moreover, the inhibition stood at 61.7% in test [8], 56% in test [9] and 53.7% in test [11]. In addition, in test [12], the inhibition at 100 µM worked out at 21.1%.
